# Numbers after ± are expanded uncertainties.
# Conditions: Liquid, Ebulliometric method (Recirculating still)
compound,measurement,setting,value
C [methane],vapor or sublimation pressure,110.01 K,88.2 ± 1.4 kPa
same,vapor or sublimation pressure,112.98 K,112.74 ± 1.4 kPa
same,vapor or sublimation pressure,114.99 K,132.11 ± 1.4 kPa
same,vapor or sublimation pressure,115.07 K,134.08 ± 1.3 kPa
same,vapor or sublimation pressure,117 K,153.92 ± 1.4 kPa
same,vapor or sublimation pressure,118.99 K,178.11 ± 1.5 kPa
same,vapor or sublimation pressure,120.11 K,194.65 ± 1.3 kPa
same,vapor or sublimation pressure,120.96 K,204.78 ± 1.5 kPa
same,vapor or sublimation pressure,123.01 K,235.61 ± 1.6 kPa
same,vapor or sublimation pressure,130.15 K,374.77 ± 1.4 kPa
same,vapor or sublimation pressure,135.09 K,496.11 ± 1.4 kPa
N#N [nitrogen],vapor or sublimation pressure,110.01 K,1466.7 ± 6 kPa
same,vapor or sublimation pressure,112.98 K,1735.2 ± 7 kPa
same,vapor or sublimation pressure,114.99 K,1936 ± 7.8 kPa
same,vapor or sublimation pressure,117 K,2153.3 ± 8.7 kPa
same,vapor or sublimation pressure,118.99 K,2385.7 ± 9.6 kPa
same,vapor or sublimation pressure,120.96 K,2633.9 ± 11 kPa
same,vapor or sublimation pressure,123.01 K,2913 ± 12 kPa
